According to US20090099376A1, “TIGECYCLINE AND METHODS OF PREPARING INTERMEDIATES” (Wyeth, priority 2007, published 2009):
Converted amounts (≈) assume the structure as drawn.

Legend:
[1] = Solubility at RT in hydrogenation solvent mixtures doped with IPA; format: physicochemical
Source text: An investigation by examining the solubility characteristics of 9-nitrominocycline and 9-aminominocycline sulfate in the presence of various amounts of IPA to gauge whether the starting material and/or product could in fact precipitate out in the reaction solvent was initiated.

[2] = Dynamic vapor sorption (DVS) study; format: physicochemical; settings: RH 90%
Source text: As a comparison, we ran the DVS on 9-nitrominocycline. This intermediate picks up to 40% by weight of water at RH 90%.

[3] = system: methicillin-resistant Staphylococcus aureus; settings: cited from earlier work
[4] = system: penicillin-resistant Streptococcus pneumoniae; settings: cited from earlier work
[5] = system: vancomycin-resistant enterococci; settings: cited from earlier work
[6] = system: organisms carrying either of the two major forms of tetracycline resistance: efflux and ribosomal protection; settings: organisms with tetracycline resistance by efflux or ribosomal protection; cited from earlier work
[7] = 80:20 water:methanol with 20% wt/wt IPA, aqueous with cosolvent or surfactant or cyclodextrin, Exp. 8: +20% wt/wt IPA, 80:20 water:methanol
[8] = 80:20 water:methanol with 35% wt/wt IPA, aqueous with cosolvent or surfactant or cyclodextrin, Exp. 9: +35% wt/wt IPA, 80:20 water:methanol
[9] = 80:20 water:methanol with 50% wt/wt IPA, aqueous with cosolvent or surfactant or cyclodextrin, Exp. 10: +50% wt/wt IPA, 80:20 water:methanol
[10] = v:v) with 0% wt/wt IPA, organic solvent or mixture, Exp. 1: MeOH:water (99:1, v:v) +0% wt/wt IPA
[11] = v:v) with 4% wt/wt IPA, organic solvent or mixture, Exp. 2: MeOH:water (99:1, v:v) +4% wt/wt IPA
[12] = v:v) with 20% wt/wt IPA, organic solvent or mixture, Exp. 3: MeOH:water (99:1, v:v) +20% wt/wt IPA
[13] = v:v) with 35% wt/wt IPA, organic solvent or mixture, Exp. 4: MeOH:water (99:1, v:v) +35% wt/wt IPA
[14] = v:v) with 50% wt/wt IPA, organic solvent or mixture, Exp. 5: MeOH:water (99:1, v:v) +50% wt/wt IPA

Solubility (in words) ([1]; 80:20 water:methanol) | solubility ([1]; 80:20 water:methanol with 0% wt/wt IPA, aqueous with cosolvent or surfactant or cyclodextrin, Exp. 6: +0% wt/wt IPA, 80:20 water:methanol) [mg/mL] | solubility ([1]; 80:20 water:methanol with 4% wt/wt IPA, aqueous with cosolvent or surfactant or cyclodextrin, Exp. 7: +4% wt/wt IPA, 80:20 water:methanol) [mg/mL] | solubility [1, 7] [mg/mL] | solubility [1, 8] [mg/mL] | solubility [1, 9] [mg/mL] | solubility [1, 10] [mg/mL] | solubility [1, 11] [mg/mL] | solubility [1, 12] [mg/mL] | solubility [1, 13] [mg/mL] | solubility [1, 14] [mg/mL] | Water uptake in DVS [2] | Solubility (in words) ([1]; 99:1 methanol:water) | Solubility at RT ([1]; Exp. 6: +0% wt/wt IPA, 80:20 water:methanol) | Solubility at RT ([1]; Exp. 7: +4% wt/wt IPA, 80:20 water:methanol) | solubility ([1]; organic solvent or mixture, Exp. 11: IPA Only) [mg/mL] | SMILES | Antibacterial activity [3] | Antibacterial activity [4] | Antibacterial activity [5] | Antibacterial activity [6]
fairly high | > 421 | > 426 | > 453 | > 303 | 333 (≈ 663 mM) | > 466 | 129 (≈ 257 mM) | 68 (≈ 135 mM) | 30 (≈ 59.7 mM) | 23 (≈ 45.8 mM) | up to 40 % by weight | – | – | – | – | CN(C)c1cc([N+](=O)[O-])c(O)c2c1C[C@H]1C[C@H]3[C@H](N(C)C)C(O)=C(C(N)=O)C(=O)[C@@]3(O)C(O)=C1C2=O [9-nitrominocycline] | – | – | – | –
high | – | – | 243 (≈ 514 mM) | 103 (≈ 218 mM) | 58 (≈ 123 mM) | 14 (≈ 29.6 mM) | 16 (≈ 33.9 mM) | 12 (≈ 25.4 mM) | 9 (≈ 19 mM) | 7 (≈ 14.8 mM) | – | somewhat low | high | high | 1 (≈ 2.12 mM) | CN(C)c1cc(N)c(O)c2c1C[C@H]1C[C@H]3[C@H](N(C)C)C(O)=C(C(N)=O)C(=O)[C@@]3(O)C(O)=C1C2=O [9-aminominocycline] | – | – | – | –
– | – | – | – | – | – | – | – | – | – | – | – | – | – | – | – | CN(C)c1cc(NC(=O)CNC(C)(C)C)c(O)c2c1C[C@H]1C[C@H]3[C@H](N(C)C)C(O)=C(C(N)=O)C(=O)[C@@]3(O)C(O)=C1C2=O [Tigecycline, (4S,4aS,5aR,12aS)-9-[2-(tert-butylamino)acetamido]-4,7-bis(dimethylamino)-1,4,4a,5,5a,6,11,12a-octahydro-3,10,12,12a-tetrahydroxy-1,11-dioxo-2-naphthacenecarboxamide] | active | active | active | active
